In PubChem BioAssay AID1963963 (Molecular Pharmacology Branch, DTP, NCI, 2024):

System: 958667-338-R-J2-PDC tumor spheroids viability
Assay: Anticancer human tumor 958667-338-R-J2-PDC patient-derived colon adenocarcinoma cell line growth inhibition [PI3K]
Conditions: spheroids with HUVEC and MSC; for IC50: curve of first compound; for viability, T/C: stronger effect = lower value
Procedure, shortened: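 High-throughput combination screen: PI3K inhibitors crossed with targeted small molecules on complex spheroids of tumor cells, HUVEC and MSCs at 37 degrees C, 5% CO2. Top concentration was at or near clinical Cmax (otherwise 10 microM), with half-log decrements.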

[1] = second compound 0.00316 µM, first compound 0.000316 µM
[2] = second compound 0.00316 µM, first compound 0.001 µM
[3] = second compound 0.00316 µM, first compound 0.00316 µM
[4] = second compound 0.00316 µM, first compound 0.01 µM
[5] = second compound 0.00316 µM, first compound 0.0316 µM
[6] = second compound 0.00316 µM, first compound 0.1 µM
[7] = second compound 0.01 µM, first compound 0.000316 µM
[8] = second compound 0.01 µM, first compound 0.001 µM
[9] = second compound 0.01 µM, first compound 0.00316 µM
[10] = second compound 0.01 µM, first compound 0.01 µM
[11] = second compound 0.01 µM, first compound 0.0316 µM
[12] = second compound 0.01 µM, first compound 0.1 µM
[13] = second compound 0.0316 µM, first compound 0.000316 µM
[14] = second compound 0.0316 µM, first compound 0.001 µM
[15] = second compound 0.0316 µM, first compound 0.00316 µM
[16] = second compound 0.0316 µM, first compound 0.01 µM
[17] = second compound 0.0316 µM, first compound 0.0316 µM
[18] = second compound 0.0316 µM, first compound 0.1 µM
[19] = second compound 0.1 µM, first compound 0.000316 µM
[20] = second compound 0.1 µM, first compound 0.001 µM
[21] = second compound 0.1 µM, first compound 0.00316 µM
[22] = second compound 0.1 µM, first compound 0.01 µM
[23] = second compound 0.1 µM, first compound 0.0316 µM
[24] = second compound 0.1 µM, first compound 0.1 µM
[25] = second compound 0.316 µM, first compound 0.000316 µM
[26] = second compound 0.316 µM, first compound 0.001 µM
[27] = second compound 0.316 µM, first compound 0.00316 µM
[28] = second compound 0.316 µM, first compound 0.01 µM
[29] = second compound 0.316 µM, first compound 0.0316 µM
[30] = second compound 0.316 µM, first compound 0.1 µM
[31] = second compound 1 µM, first compound 0.000316 µM
[32] = second compound 1 µM, first compound 0.001 µM
[33] = second compound 1 µM, first compound 0.00316 µM
[34] = second compound 1 µM, first compound 0.01 µM
[35] = second compound 1 µM, first compound 0.0316 µM
[36] = second compound 1 µM, first compound 0.1 µM
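Also: spheroids exposed to compounds for seven days before readout.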

What does the source list for `CC(=O)c1c(C)c2cnc(Nc3ccc(N4CCNCC4)cn3)nc2n(C2CCCC2)c1=O` + COc1c(OCCCN2CCOCC2)ccc2c3n(c(=NC(=O)c4cnc(N)nc4)nc12)CCN3?
IC50 (second compound 0.00316 µM): > 100 nM; IC50 (second compound 0.01 µM): > 100 nM; IC50 (second compound 0.0316 µM): > 100 nM; IC50 (second compound 0.1 µM): > 100 nM; IC50 (second compound 0.316 µM): < 0.316 nM; IC50 (second compound 1 µM): < 0.316 nM; viability, T/C [1]: 103%; viability, T/C [2]: 101%; viability, T/C [3]: 97.2%; viability, T/C [4]: 98.2%; viability, T/C [5]: 108%; viability, T/C [6]: 62.8%; viability, T/C [7]: 82.9%; viability, T/C [8]: 67.7%; viability, T/C [9]: 90.8%; viability, T/C [10]: 79.1%; viability, T/C [11]: 83.3%; viability, T/C [12]: 69.9%; viability, T/C [13]: 75.7%; viability, T/C [14]: 94.8%; viability, T/C [15]: 75.5%; viability, T/C [16]: 56.7%; viability, T/C [17]: 67.3%; viability, T/C [18]: 56.3%; viability, T/C [19]: 64.9%; viability, T/C [20]: 61.8%; viability, T/C [21]: 51.5%; viability, T/C [22]: 70.2%; viability, T/C [23]: 62.7%; viability, T/C [24]: 50.7%; viability, T/C [25]: 37.2%; viability, T/C [26]: 42.5%; viability, T/C [27]: 49.1%; viability, T/C [28]: 42.9%; viability, T/C [29]: 35%; viability, T/C [30]: 26.6%; viability, T/C [31]: 17.8%; viability, T/C [32]: 20.3%; viability, T/C [33]: 18%; viability, T/C [34]: 20.3%; viability, T/C [35]: 22.3%; viability, T/C [36]: 17.2%

Which results are given for `CC(C)n1nc(-c2ccc3oc(N)nc3c2)c2c(N)ncnc21` + COc1c(OCCCN2CCOCC2)ccc2c3n(c(=NC(=O)c4cnc(N)nc4)nc12)CCN3?
IC50 (second compound 0.00316 µM): 77.8 nM; IC50 (second compound 0.01 µM): 60.9 nM; IC50 (second compound 0.0316 µM): 22.8 nM; IC50 (second compound 0.1 µM): 9.88 nM; IC50 (second compound 0.316 µM): < 0.316 nM; IC50 (second compound 1 µM): < 0.316 nM; viability, T/C [1]: 88.1%; viability, T/C [2]: 112%; viability, T/C [3]: 99.2%; viability, T/C [4]: 103%; viability, T/C [5]: 77.4%; viability, T/C [6]: 42.4%; viability, T/C [7]: 73.6%; viability, T/C [8]: 70%; viability, T/C [9]: 85.2%; viability, T/C [10]: 71.6%; viability, T/C [11]: 74.7%; viability, T/C [12]: 31.3%; viability, T/C [13]: 69.6%; viability, T/C [14]: 74.5%; viability, T/C [15]: 70%; viability, T/C [16]: 58.1%; viability, T/C [17]: 47%; viability, T/C [18]: 25.2%; viability, T/C [19]: 67.3%; viability, T/C [20]: 66.1%; viability, T/C [21]: 62%; viability, T/C [22]: 44.2%; viability, T/C [23]: 41%; viability, T/C [24]: 21.3%; viability, T/C [25]: 41.4%; viability, T/C [26]: 37%; viability, T/C [27]: 34.7%; viability, T/C [28]: 33.1%; viability, T/C [29]: 25.1%; viability, T/C [30]: 14.7%; viability, T/C [31]: 17.2%; viability, T/C [32]: 16.5%; viability, T/C [33]: 13.6%; viability, T/C [34]: 17.5%; viability, T/C [35]: 15.8%; viability, T/C [36]: 11.5%
